PMC5426640, “A novel multifunctional peptide oligomer of bacitracin with possible bioindustrial and therapeutic applications from a Korean food-source Bacillus strain” (PLoS ONE, 2017)
Where a SMILES comes first, the peptide text is derived from it. Bridges are numbered along the chain shown (N, C = ends). [ ]: non-standard residue; d: D form. The star is where a group is joined. Ileψ(thiazoline)Cys = CC[C@H](C)[C@H](N)C1=N[C@H](C(=O)*)CS1; dOrn = NCCC[C@@H](N)C(=O)O

Tests used:
COX-2 = assay: Western blot of protein expression in LPS-stimulated RAW 264.7 cells; assay type: cell-based, mouse; conditions: 10, 50, or 100 μg/mL, LPS 1 μg/mL, 24 h
Experimental: (§1) Macrophages were incubated with or without LPS in the presence or absence of the AMPs. Cells were harvested, washed twice with ice-cold Tris-HCl-buffered saline (TBS), and resuspended in lysis buffer [100 mM Tris-HCl, 5 mM EDTA, 50 mM NaCl, 50 mM β- glycerophosphate, 50 mM NaF (sodium fluoride), 0.5% NP-40, 1% sodium deoxycholate, 0.1 mM sodium orthovanadate, and 1% phenylmethylsulfonyl fluoride (PMSF)]. The cytosolic fraction was obtained from the supernatant after […] centrifugation at 4°C for 20 min. Samples (20 μg in terms of protein) were separated by sodium dodecyl sulfate-polyacrylamide gel electrophoresis (SDS-PAGE) in a 10% gel and transferred to polyvinylidene difluoride (PVDF) membranes. The membranes were blocked with 5% nonfat milk in TBS with Tween 20 (0.1%) for 2 h and then incubated with primary antibodies specific for ERK, phospho-ERK, JNK, phospho-JNK, p38 MAPK, phospho-p38 MAPK (all them from Cell Signaling Technology), NF-κB, IκB, and phospho-IκB (1:1000; Santa Cruz Biotechnology). […] After three washes with TBS–Tween 20, the membrane was hybridized with an HRP-conjugated secondary antibody for 1 h. […] The immunoreactive proteins were detected by means of a LAS-3000 Luminescent image analyzer (Fuji Photo Film Co., Ltd., Tokyo, Japan).

iNOS = assay: as above; assay type: cell-based, mouse; conditions: 10, 50, or 100 μg/mL, LPS 1 μg/mL, 24 h
Experimental: as §1

JNK = assay: Western blot of LPS-induced MAPK phosphorylation in RAW 264.7 cells; assay type: cell-based, mouse; conditions: 10–100 μg/mL, LPS 1 μg/mL
Experimental: (§2) Macrophages were incubated with or without LPS in the presence or absence of the AMPs. Cells were harvested, washed twice with ice-cold Tris-HCl-buffered saline (TBS), and resuspended in lysis buffer [100 mM Tris-HCl, 5 mM EDTA, 50 mM NaCl, 50 mM β- glycerophosphate, 50 mM NaF (sodium fluoride), 0.5% NP-40, 1% sodium deoxycholate, 0.1 mM sodium orthovanadate, and 1% phenylmethylsulfonyl fluoride (PMSF)]. The cytosolic fraction was obtained from the supernatant after […] centrifugation at 4°C for 20 min. Samples (20 μg in terms of protein) were separated by sodium dodecyl sulfate-polyacrylamide gel electrophoresis (SDS-PAGE) in a 10% gel and transferred to polyvinylidene difluoride (PVDF) membranes. The membranes were blocked with 5% nonfat milk in TBS with Tween 20 (0.1%) for 2 h and then incubated with primary antibodies specific for ERK, phospho-ERK, JNK, phospho-JNK, p38 MAPK, phospho-p38 MAPK (all them from Cell Signaling Technology), NF-κB, IκB, and phospho-IκB (1:1000; Santa Cruz Biotechnology). […] After three washes with TBS–Tween 20, the membrane was hybridized with an HRP-conjugated secondary antibody for 1 h. The membranes were washed three times for 10 min and developed with the ECL Western Blotting Detection System (GE Healthcare, Incheon, Republic of Korea,). The immunoreactive proteins were detected by means of a LAS-3000 Luminescent image analyzer (Fuji Photo Film Co., Ltd., Tokyo, Japan).

p38 MAPK = assay: as above; assay type: cell-based, mouse; conditions: 10–100 μg/mL, LPS 1 μg/mL
Experimental: as §2

ERK = assay: as above; assay type: cell-based, mouse; conditions: 10–100 μg/mL, LPS 1 μg/mL
Experimental: as §2

[1] = system: NO production in LPS-stimulated RAW 264.7 cells; assay: LPS-induced NO production, Griess reaction; assay type: cell-based, mouse; conditions: 10, 50, or 100 μg/mL; LPS 1 μg/mL, 24 h; Griess reagent
Experimental: NO levels in the culture supernatants were measured by the Griess reaction. Cells (10^6 cells/mL) were seeded in 6-well plates and pretreated with the indicated concentrations of AMP for 30 min before stimulation with 1 μg/mL LPS for 24 h. The sample supernatants were mixed with an equal volume of the Griess reagent (1% sulfanilamide in 5% phosphoric acid and 0.1% naphthyl ethylene diamine dihydrochloride), and then incubated at room temperature for 10 min. The absorbance was measured at 550 nm on a microplate reader (Thermo Fisher Co.). The nitrite concentration was determined using a dilution of sodium nitrite as a standard.

[2] = system: Micrococcus luteus ATCC 9341; assay: Thermostability, residual antimicrobial activity; assay type: physicochemical; conditions: residual antimicrobial activity vs Micrococcus luteus ATCC 9341, mean ± SD, n = 3
Experimental: (§3) After heat treatment (30–121°C, 10–60 min), the samples were tested for residual antimicrobial activity against indicator strain Micrococcus luteus ATCC 9341. Effects of pH on antimicrobial activity were estimated by varying the pH levels. Samples were diluted in the following buffers: citrate with Na2HPO4 (pH 3.0–7.0), Tris-HCl (pH 7.0–9.0), and NaHCO3 with NaOH (pH 10.0–11.0). After incubation for 1 h at room temperature, pH in the samples was adjusted to 7.0, and the samples were tested for antimicrobial activity against the indicator strain. The AMP was digested with various proteolytic enzymes at a final concentration of 1 mg/mL: […] (50 mM Tris-HCl, pH 7.5), protease K (50 mM Tris-HCl, pH 7.5), α-chymotrypsin (50 mM Tris-HCl, pH 7.5), or trypsin (50 mM Tris-HCl, pH 8.0). After 1-h incubation at room temperature, the enzymes were boiled for 2 min for inactivation.

[3] = system: Micrococcus luteus ATCC 9341; assay: pH stability, residual antimicrobial activity; assay type: physicochemical; conditions: 1 h at room temperature, residual antimicrobial activity vs indicator strain, n = 3
Experimental: as §3

TNF-α = assay: ELISA of cytokine production in LPS-stimulated RAW 264.7 cells; assay type: cell-based, mouse; conditions: 10–100 μg/mL before LPS 1 μg/mL for 24 h; ELISA of supernatant
Experimental: (§4) The concentration of nitrite in the supernatant was calculated using a sodium nitrite standard curve. The supernatant was analyzed for TNF-α, IL-1β, and IL-6 by ELISAs using commercial kits (BD Biosciences) according to the manufacturer’s instructions.

IL-6 = assay: as above; assay type: cell-based, mouse; conditions: 10–100 μg/mL before LPS 1 μg/mL for 24 h; ELISA of supernatant
Experimental: as §4

IL-1β = assay: as above; assay type: cell-based, mouse; conditions: 10–100 μg/mL before LPS 1 μg/mL for 24 h; ELISA of supernatant
Experimental: as §4

IκBα = assay: Western blot of IκBα phosphorylation in LPS-stimulated RAW 264.7 cells; assay type: cell-based, mouse; conditions: CSP32 1 h prior to LPS 1 μg/mL
Experimental: as §1

NF-κB (p65) = assay: Western blot of NF-κB translocation into the nucleus in LPS-stimulated RAW 264.7 cells; assay type: cell-based, mouse; conditions: CSP32 1 h prior to LPS 1 μg/mL
Experimental: as §1

IL-1β mRNA = assay: RT-PCR of mRNA expression in LPS-stimulated RAW 264.7 cells; assay type: cell-based, mouse; conditions: 10, 50, or 100 μg/mL, LPS 2–12 h, GAPDH control
Experimental: Total RNA from the AMP-treated cells was prepared using the RNAiso Reagent (Takara) and was stored at −80°C until use. For the detection of iNOS, COX-2, TNF-α, IL-Iβ, and IL-6, total RNA was extracted after stimulation and treatment. The mRNA expression levels of iNOS, COX-2, TNF-α, IL-Iβ, and IL-6 in the treated cells were compared to the expression levels in control cells. One microgram of RNA was reverse-transcribed into cDNA and used as a template for PCR amplification. PCR was performed on a DNA Gene Cycler, under the following conditions: 40 cycles of denaturation at 94°C for 30 s, annealing at 58°C for 30 s, and primer extension at 72°C for 40 s. PCR products were analyzed on 1% agarose gels, and bands were visualized by ethidium bromide staining.

For `CC[C@H](C)[C@H](N)C1=N[C@H](C(=O)N[C@@H](CC(C)C)C(=O)N[C@H](CCC(=O)O)C(=O)N[C@H](C(=O)N[C@H]2CCCCNC(=O)[C@H](CC(N)=O)NC(=O)[C@@H](CC(=O)O)NC(=O)[C@H](Cc3c[nH]cn3)NC(=O)[C@@H](Cc3ccccc3)NC(=O)[C@H]([C@@H](C)CC)NC(=O)[C@@H](CCCN)NC2=O)[C@@H](C)CC)CS1` [CSP32] ({Ileψ(thiazoline)Cys}-L[dE]IK[dOrn]I[dF]H[dD]N; lactam 4-C; N-terminus assumed), the “Effect on LPS-induced COX-2 protein expression” value (COX-2) was “significantly attenuated this induction in a dose-dependent manner”, the “Effect on LPS-induced iNOS protein expression” value (iNOS) was “significantly attenuated this induction in a dose-dependent manner” and the “Effect on LPS-induced phosphorylation of JNK” value (JNK) was “Phosphorylation decreased in a dose-dependent manner”. For the same molecule, the “Effect on LPS-induced phosphorylation of p38 MAPK” value (p38 MAPK) was “Phosphorylation decreased in a dose-dependent manner”, the “Effect on LPS-induced phosphorylation of ERK” value (ERK) was “Phosphorylation decreased in a dose-dependent manner” and the “Effect on LPS-induced NO production” value [1] was “attenuated the LPS-induced production of NO to a statistically significant extent”. The “Residual activity (%)” value ([2]; heat treatment 30°C, 10 min) was 100%, the “Residual activity (%)” value ([2]; heat treatment 30°C, 30 min, SD) was 100±0.28% and the “Residual activity (%)” value ([2]; heat treatment 30°C, 60 min, SD) was 100±0.34%. The “Residual activity (%)” value ([2]; heat treatment 50°C, 10 min, SD) was 100±0.94%, the “Residual activity (%)” value ([2]; heat treatment 50°C, 30 min, SD) was 98.40±0.39% and the “Residual activity (%)” value ([2]; heat treatment 50°C, 60 min, SD) was 98.07±0.36%. For the same molecule, the “Residual activity (%)” value ([2]; heat treatment 70°C, 10 min, SD) was 98.07±0.41%, the “Residual activity (%)” value ([2]; heat treatment 70°C, 30 min, SD) was 98.00±0.41% and the “Residual activity (%)” value ([2]; heat treatment 70°C, 60 min, SD) was 98.07±0.39%. For the same molecule, the “Residual activity (%)” value ([2]; heat treatment 90°C, 10 min, SD) was 97.73±1.04%, the “Residual activity (%)” value ([2]; heat treatment 121°C, 15 min, SD) was 65.40±0.17% and the “Residual activity (%)” value ([3]; pH 2, then adjusted to pH 7.0, mean ± SD, SD) was 61.33±1.04%. The “Residual activity (%)” value ([3]; pH 3, citrate with Na2HPO4, then adjusted to pH 7.0, mean ± SD, SD) was 63.00±1.04%, the “Residual activity (%)” value ([3]; pH 4, citrate with Na2HPO4, then adjusted to pH 7.0, mean ± SD, SD) was 89.60±3.44% and the “Residual activity (%)” value ([3]; pH 6, citrate with Na2HPO4, then adjusted to pH 7.0, mean ± SD, SD) was 100±0.50%. The “Residual activity (%)” value ([3]; pH 7) was 100%, the “Residual activity (%)” value ([3]; pH 8, Tris-HCl, then adjusted to pH 7.0, mean ± SD, SD) was 100±0.20% and the “Residual activity (%)” value ([3]; pH 9, Tris-HCl, then adjusted to pH 7.0, mean ± SD, SD) was 100±1.15%. For the same molecule, the “Residual activity (%)” value ([3]; pH 10, NaHCO3 with NaOH, then adjusted to pH 7.0, mean ± SD, SD) was 98±3.38%, the “Residual activity (%)” value ([3]; pH 11, NaHCO3 with NaOH, then adjusted to pH 7.0, mean ± SD, SD) was 91.33±0.06% and the “Residual activity (%)” value ([3]; pH 12, then adjusted to pH 7.0, mean ± SD, SD) was 91.77±0.06%. For the same molecule, the “Effect on LPS-induced TNF-α release” value (TNF-α) was “significantly attenuated”, the “Effect on LPS-induced IL-6 release” value (IL-6) was “significantly attenuated” and the “Effect on LPS-induced IL-1β release” value (IL-1β) was “significantly attenuated”. For the same molecule, the “Effect on LPS-increased level of p-IκBα” value (IκBα) was “attenuated by CSP32 treatment (dose dependently)”, the “Effect on LPS-induced changes in the levels of p65 in the nucleus and cytoplasm” value (NF-κB (p65)) was “attenuated” and the “Effect on LPS-induced IL-1β mRNA expression” value (IL-1β mRNA) was “dose-dependently attenuated the LPS-enhanced expression”.
